In patent US20250034170A1, “SMALL MOLECULE MODULATORS OF GLUCOCEREBROSIDASE ACTIVITY AND USES THEREOF” (Vanqua Bio, Inc., priority 2021, published 2025):

These compounds were tested against T1, GCase (Homo sapiens, UniProt P04062) (assay: activation of GCase in a live cell PFB assay in HELA cells). Settings: activation of GCase, EC50 ranges.
T1 construct: endogenous in cells; host or cells: HeLa cells
T1 sequence (P04062 40-536): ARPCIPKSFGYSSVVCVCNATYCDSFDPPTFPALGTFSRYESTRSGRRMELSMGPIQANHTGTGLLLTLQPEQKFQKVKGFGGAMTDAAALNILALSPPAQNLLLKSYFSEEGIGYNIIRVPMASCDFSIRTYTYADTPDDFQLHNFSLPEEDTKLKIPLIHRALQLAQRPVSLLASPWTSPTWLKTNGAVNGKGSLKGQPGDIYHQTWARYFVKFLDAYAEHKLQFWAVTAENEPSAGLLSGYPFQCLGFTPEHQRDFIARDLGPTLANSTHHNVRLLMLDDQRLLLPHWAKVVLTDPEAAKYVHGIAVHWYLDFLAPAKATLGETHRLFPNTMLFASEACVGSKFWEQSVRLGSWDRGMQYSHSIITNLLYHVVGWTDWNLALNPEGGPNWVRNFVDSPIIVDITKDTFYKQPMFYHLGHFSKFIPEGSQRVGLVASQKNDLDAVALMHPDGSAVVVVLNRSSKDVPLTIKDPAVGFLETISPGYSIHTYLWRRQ
Type: cell-based
Procedure: Exemplary compounds were evaluated for activation of GCase in a live cell PFB assay in HELA cells (essentially as described in Ysselstein et al., “LRRK2 kinase activity regulates lysosomal glucocerebrosidase in neurons derived from Parkinson's disease patients” Nature Communications (2019) 10:5570). […] EC50 ranges: A: <10 μM; B: >10-50 μM; C: >50-100 μM; D: >100 μM.

| EC50 [µM] | Structure (SMILES) |
| --- | --- |
| 10 to 50 | Cc1nc(N2CC3(CCN(c4ncc5cnn(C)c5n4)C3)C2)cc(C(F)(F)F)n1 [Cmpd 647] |
| < 10 | Cc1nc(N2CC3(CCN(c4ncc5c(C)nn(C)c5n4)C3)C2)cc(C(F)(F)F)n1 [Cmpd 648] |
| 10 to 50 | Cc1nc(N2CC3(CCN(c4cnc5cnn(C)c5n4)C3)C2)cc(C(F)(F)F)n1 [Cmpd 649] |
| < 10 | Cc1nc(N2CC3(CCN(c4ncc5cnn(C(F)F)c5n4)C3)C2)cc(C(F)(F)F)n1 [Cmpd 650] |
| 10 to 50 | Cc1nc(N2CC3(CCN(c4ncc5cn(C(F)F)nc5n4)C3)C2)cc(C(F)(F)F)n1 [Cmpd 651] |
| > 100 | Cc1ncc(N2CC3(CCN(c4cnc5cnn([C@H]6CCOC6)c5n4)C3)C2)c(C(F)(F)F)n1 [Cmpd 652] |
| > 100 | Cc1ncc(N2CC3(CCN(c4cnc5cnn([C@@H]6CCOC6)c5n4)C3)C2)c(C(F)(F)F)n1 [Cmpd 653] |
| 10 to 50 | FC(F)(F)c1ncc(N2CC3(CCN(c4cnc5cnn([C@H]6CCOC6)c5n4)C3)C2)cn1 [Cmpd 654] |
| 10 to 50 | FC(F)(F)c1ncc(N2CC3(CCN(c4cnc5cnn([C@@H]6CCOC6)c5n4)C3)C2)cn1 [Cmpd 655] |
| 50 to 100 | Cc1nc(C(F)(F)F)ncc1N1CC2(CCN(c3cnc4cnn([C@H]5CCOC5)c4n3)C2)C1 [Cmpd 656] |
| 10 to 50 | Cc1nc(C(F)(F)F)ncc1N1CC2(CCN(c3cnc4cnn([C@@H]5CCOC5)c4n3)C2)C1 [Cmpd 657] |
| 10 to 50 | Cc1nc(C(F)(F)F)ncc1N1CCC2(CCN(c3ncc4c(C)nn(CC(F)(F)F)c4n3)C2)C1 (stereo not drawn) [Cmpd 658] |
| 10 to 50 | Cc1ncc(N2CCC3(CCN(c4ncc5c(C)nn(CC(F)(F)F)c5n4)C3)C2)c(C(F)(F)F)n1 (stereo not drawn) [Cmpd 659] |
| 10 to 50 | FC(F)(F)c1ccc(N2CC3(CCN(c4cnc5cnn(C6COC6)c5n4)C3)C2)cn1 [Cmpd 660] |
| 10 to 50 | CC1(C)CC2(CCN(c3cnc4cnn(CC(F)F)c4n3)CC2)C(=O)N1c1cc(C(F)(F)F)ccn1 [Cmpd 661] |
| 10 to 50 | CC1(C)N(c2cc(C(F)(F)F)ccn2)C(=O)CC12CCN(c1cnc3cnn(CC(F)F)c3n1)CC2 [Cmpd 662] |
| 10 to 50 | CCC1N(c2cc(C(F)(F)F)ccn2)C(=O)CC12CCN(c1cnc3cnn(CC(F)F)c3n1)CC2 (stereo not drawn) [Cmpd 663] |
| 10 to 50 | O=C1N(c2nc(C(F)(F)F)c(F)cc2F)CCC12CCN(c1cnc3cnn(CC(F)F)c3n1)CC2 [Cmpd 664] |
| > 100 | COc1cc(N2CCC3(CCN(c4cnc5cnn(CC(F)F)c5n4)CC3)C2=O)nc(C(F)(F)F)c1 [Cmpd 665] |
| < 10 | Cn1c(N2CCC3(CCN(c4cnc5cnn(CC(F)F)c5n4)CC3)C2=O)cc(=O)cc1C(F)(F)F [Cmpd 666] |
| 50 to 100 | O=C1CC2(CCN1c1cnc3cnn(CC(F)F)c3n1)CN(c1cccc(C(F)(F)F)n1)C2 [Cmpd 667] |
| < 10 | CC1CC2(CCN(c3cccc(C(F)(F)F)n3)C2=O)CCN1c1cnc2cnn(CC(F)F)c2n1 (stereo not drawn) [Cmpd 668] |
| 10 to 50 | CC1CN(c2cnc3cnn(CC(F)F)c3n2)CC[C@@]12CCN(c1cccc(C(F)(F)F)n1)C2=O (stereo partly drawn) [Cmpd 670] |

| EC50 [µM] | Structure (SMILES) |
| --- | --- |
| < 10 | CN(C)C(=O)c1cccc(N2CCC3(CCN(c4cnc5cnn(CC(F)F)c5n4)CC3)C2=O)n1 [Cmpd 671] |
| 10 to 50 | COCCOc1cccc(N2CCC3(CCN(c4cnc5cnn(CC(F)F)c5n4)CC3)C2=O)n1 [Cmpd 672] |
| < 10 | O=C1N(c2ccc(C(F)(F)F)nc2)CCC12CCN(c1cnc3cnn(CC(F)F)c3n1)CC2 [Cmpd 673] |
| < 10 | O=C1N(c2cncc(C(F)(F)F)c2)CCC12CCN(c1cnc3cnn(CC(F)F)c3n1)CC2 [Cmpd 674] |
| 10 to 50 | O=C1N(c2cnccc2C(F)(F)F)CCC12CCN(c1cnc3cnn(CC(F)F)c3n1)CC2 [Cmpd 675] |
| < 10 | O=C1N(c2ccnc(C(F)(F)F)c2)CCC12CCN(c1cnc3cnn(CC(F)F)c3n1)CC2 [Cmpd 676] |
| 10 to 50 | O=C1N(c2ccncc2C(F)(F)F)CCC12CCN(c1cnc3cnn(CC(F)F)c3n1)CC2 [Cmpd 677] |
| 10 to 50 | O=C1N(c2ccc(C(F)(F)F)cn2)CCC12CCN(c1cnc3cnn(CC(F)F)c3n1)CC2 [Cmpd 678] |
| 10 to 50 | O=C1N(c2ncccc2C(F)(F)F)CCC12CCN(c1cnc3cnn(CC(F)F)c3n1)CC2 [Cmpd 679] |
| 10 to 50 | O=C1CC2(CCN(c3cnc4cnn(CC(F)F)c4n3)CC2)CN1c1ccc(C(F)(F)F)nc1 [Cmpd 680] |
| 10 to 50 | O=C1CC2(CCN(c3cnc4cnn(CC(F)F)c4n3)CC2)CN1c1cncc(C(F)(F)F)c1 [Cmpd 681] |
| 10 to 50 | O=C1CC2(CCN(c3cnc4cnn(CC(F)F)c4n3)CC2)CN1c1cnccc1C(F)(F)F [Cmpd 682] |
| < 10 | O=C1CC2(CCN(c3cnc4cnn(CC(F)F)c4n3)CC2)CN1c1ccnc(C(F)(F)F)c1 [Cmpd 683] |
| < 10 | O=C1CC2(CCN(c3cnc4cnn(CC(F)F)c4n3)CC2)CN1c1ccncc1C(F)(F)F [Cmpd 684] |
| 10 to 50 | O=C1CC2(CCN(c3cnc4cnn(CC(F)F)c4n3)CC2)CN1c1ccc(C(F)(F)F)cn1 [Cmpd 685] |
| > 100 | O=C1CC2(CCN(c3cnc4cnn(CC(F)F)c4n3)CC2)CN1c1ncccc1C(F)(F)F [Cmpd 686] |
| < 10 | FC(F)Cn1ncc2ncc(N3CCC4(CCC(Oc5ccncc5C(F)(F)F)C4)CC3)nc21 (stereo not drawn) [Cmpd 687] |
| < 10 | FC(F)Cn1ncc2ncc(N3CCC4(CCC(Oc5cnccc5C(F)(F)F)C4)CC3)nc21 (stereo not drawn) [Cmpd 688] |
| 10 to 50 | FC(F)Cn1ncc2ncc(N3CCC4(CCC(Oc5ncccc5C(F)(F)F)C4)CC3)nc21 (stereo not drawn) [Cmpd 689] |
| < 10 | FC(F)Cn1ncc2ncc(N3CCC4(CCC(Oc5ccnc(C(F)(F)F)c5)C4)CC3)nc21 (stereo not drawn) [Cmpd 690] |
| 10 to 50 | FC(F)Cn1ncc2ncc(N3CCC4(CCC(Oc5cncc(C(F)(F)F)c5)C4)CC3)nc21 (stereo not drawn) [Cmpd 691] |
| 10 to 50 | FC(F)Cn1ncc2ncc(N3CCC4(CCC(Oc5cc(C(F)(F)F)ccn5)C4)CC3)nc21 (stereo not drawn) [Cmpd 692] |
| < 10 | FC(F)Cn1ncc2ncc(N3CCC4(CCC(Oc5ccc(C(F)(F)F)nc5)C4)CC3)nc21 (stereo not drawn) [Cmpd 693] |

| EC50 [µM] | Structure (SMILES) |
| --- | --- |
| 10 to 50 | FC(F)Cn1ncc2ncc(N3CCC4(CCC(Oc5ccc(C(F)(F)F)cn5)C4)CC3)nc21 (stereo not drawn) [Cmpd 694] |
| < 10 | FC(F)Cn1ncc2ncc(N3CCC4(CC3)CC(COc3ccnc(C(F)(F)F)c3)C4)nc21 [Cmpd 695] |
| < 10 | FC(F)Cn1ncc2ncc(N3CCC4(CC3)CC(COc3cncc(C(F)(F)F)c3)C4)nc21 [Cmpd 696] |
| 10 to 50 | FC(F)Cn1ncc2ncc(N3CCC4(CC3)CC(COc3cc(C(F)(F)F)ccn3)C4)nc21 [Cmpd 697] |
| < 10 | FC(F)Cn1ncc2ncc(N3CCC4(CC3)CC(COc3ccncc3C(F)(F)F)C4)nc21 [Cmpd 698] |
| < 10 | FC(F)Cn1ncc2ncc(N3CCC4(CC3)CC(COc3cnccc3C(F)(F)F)C4)nc21 [Cmpd 699] |
| < 10 | FC(F)Cn1ncc2ncc(N3CCC4(CC3)CC(COc3ncccc3C(F)(F)F)C4)nc21 [Cmpd 700] |
| 10 to 50 | FC(F)Cn1ncc2ncc(N3CCC4(CC3)CC(COc3ccc(C(F)(F)F)nc3)C4)nc21 [Cmpd 701] |
| 10 to 50 | FC(F)Cn1ncc2ncc(N3CCC4(CC3)CC(COc3ccc(C(F)(F)F)cn3)C4)nc21 [Cmpd 702] |
| < 10 | FC(F)Cn1ncc2ncc(N3CCC4(CC3)CC(Oc3ccnc(C(F)(F)F)c3)C4)nc21 [Cmpd 703] |
| < 10 | FC(F)Cn1ncc2ncc(N3CCC4(CC3)CC(Oc3cncc(C(F)(F)F)c3)C4)nc21 [Cmpd 704] |
| 10 to 50 | FC(F)Cn1ncc2ncc(N3CCC4(CC3)CC(Oc3cc(C(F)(F)F)ccn3)C4)nc21 [Cmpd 705] |
| < 10 | FC(F)Cn1ncc2ncc(N3CCC4(CC3)CC(Oc3ccncc3C(F)(F)F)C4)nc21 [Cmpd 706] |
| 10 to 50 | FC(F)Cn1ncc2ncc(N3CCC4(CC3)CC(Oc3cnccc3C(F)(F)F)C4)nc21 [Cmpd 707] |
| 10 to 50 | FC(F)Cn1ncc2ncc(N3CCC4(CC3)CC(Oc3ncccc3C(F)(F)F)C4)nc21 [Cmpd 708] |
| 10 to 50 | FC(F)Cn1ncc2ncc(N3CCC4(CC3)CC(Oc3ccc(C(F)(F)F)nc3)C4)nc21 [Cmpd 709] |
| 10 to 50 | FC(F)Cn1ncc2ncc(N3CCC4(CC3)CC(Oc3ccc(C(F)(F)F)cn3)C4)nc21 [Cmpd 710] |
| 10 to 50 | O=C1N(c2cc(C(F)(F)F)ccn2)C(=O)C2(CCN(c3cnc4cnn(CC(F)F)c4n3)CC2)N1CC1CC1 [Cmpd 711] |
| 10 to 50 | O=C1N(c2cc(C(F)(F)F)ccn2)C(=O)C2(CCN(c3cnc4cnn(CC(F)F)c4n3)CC2)N1CCC1CC1 [Cmpd 712] |
| < 10 | COCCN1C(=O)N(c2cc(C(F)(F)F)ccn2)C(=O)C12CCN(c1cnc3cnn(CC(F)F)c3n1)CC2 [Cmpd 713] |
| < 10 | O=C1N(c2cc(C(F)(F)F)ccn2)C(=O)C2(CCN(c3cnc4cnn(CC(F)F)c4n3)CC2)N1Cc1ccc(F)cc1F [Cmpd 714] |
| < 10 | O=C1N(c2cc(C(F)(F)F)ccn2)C(=O)C2(CCN(c3cnc4cnn(CC(F)F)c4n3)CC2)N1Cc1c(F)cccc1F [Cmpd 715] |
| < 10 | O=C1N(c2cc(C(F)(F)F)ccn2)C(=O)C2(CCN(c3cnc4cnn(CC(F)F)c4n3)CC2)N1Cc1cc(F)cc(F)c1 [Cmpd 716] |
